The test system of data set [1] is HeLa. Put plainly: Anticancer activity against human HeLa cells assessed as inhibition of cell growth incubated for 48 hrs by MTT assay. Format: functional, cell-based. In general terms: Formazan colour is commonly taken as a measure of viable cells.
Data set [2] concerns HepG2. As to the kind of experiment: Anticancer activity against human HepG2 cells assessed as inhibition of cell growth incubated for 48 hrs by MTT assay. Format: functional, cell-based. As to conditions: HepG2, 48 h.
Data set [3] concerns MGC-803. As to the kind of experiment: Anticancer activity against human MGC-803 cells assessed as inhibition of cell growth incubated for 48 hrs by MTT assay. The format is functional, cell-based. As to conditions: MGC-803, 48 h.
A short description of data set [4]: Cytotoxicity against human LO2 cells assessed as reduction in cell viability incubated for 48 hrs by MTT assay. Format: toxicity, cell-based, L02.
Data set [5] relates to T-24. As to the kind of experiment: Anticancer activity against human T-24 cells assessed as inhibition of cell growth incubated for 48 hrs by MTT assay. As to conditions: T-24, 48 h. Format: functional, cell-based.

pIC50: −log10 of the molar value. Structures can show the parent of a compound that is named as a salt.

The term pIC50 denotes −log10 of the IC50, conventionally taken in molar units. What is called IC50 is the concentration needed to halve the response being measured. Regarding `CC(C)c1ccc2c(c1)CC[C@H]1[C@](C)(C(=O)OCc3cn(CC4CN(c5ccccc5Cl)C(=O)O4)nn3)CCC[C@]21C` (stereo not given in full), the pIC50 is 4.85 in data set [1], 4.87 in data set [2], 4.96 in data set [3] and 4.15 in data set [5]. For the same molecule, the IC50 at 48 h in data set [4] stood at 21.4 µM.

With `CC(C)c1ccc2c(c1)CC[C@H]1[C@](C)(C(=O)OCc3cn(CC4CN(c5ccc(Cl)cc5)C(=O)O4)nn3)CCC[C@]21C` (stereo not given in full), the pIC50 in data set [1] was 4.61; in data set [2], 4.74; in data set [3], 4.79; in data set [5], 4.44. For the same molecule, the IC50 at 48 h in data set [4] was 24.3 µM.

`CC(C)c1ccc2c(c1)CC[C@H]1[C@](C)(C(=O)OCc3cn(CC4CN(c5ccccc5)C(=O)O4)nn3)CCC[C@]21C` (stereo not given in full): the negative logarithm of the IC50 (pIC50) in data set [1] was 4.44; in data set [2], 4.74; in data set [3] it was 4.89; in data set [5], less than 4.00. The half-inhibitory concentration (IC50) at 48 h in data set [4] came to 20.8 µM.

Take `COc1cc(N2CC(Cn3cc(COC(=O)[C@]4(C)CCC[C@]5(C)c6ccc(C(C)C)cc6CC[C@@H]45)nn3)OC2=O)cc(OC)c1OC` (stereo not given in full): the negative-log IC50 (pIC50) in data set [1] is 4.78; in data set [2], 4.49; in data set [3], 4.61; in data set [5], 4.91. Further, the IC50 at 48 h in data set [4] is 22.7 µM.

On to `CC(C)c1ccc2c(c1)CC[C@H]1[C@](C)(C(=O)OCc3cn(CC4CN(c5cccc(Cl)c5)C(=O)O4)nn3)CCC[C@]21C` (stereo not given in full), for which the pIC50 in data set [1] is 5.16; in data set [2], 4.32; in data set [3], 4.75; in data set [5] it was less than 4.00. For the same molecule, the 50% inhibitory concentration (IC50) at 48 h in data set [4] turned out to be 23.9 µM.

Take `CC(C)c1ccc2c(c1)CC[C@H]1[C@](C)(C(=O)OCc3cn(CC4CN(c5ccccc5[N+](=O)[O-])C(=O)O4)nn3)CCC[C@]21C` (stereo not given in full): the negative-log IC50 (pIC50) in data set [1] was 4.82; in data set [2], 4.11; in data set [3], 4.61; in data set [5], 4.56. Further, the half-inhibitory concentration (IC50) at 48 h in data set [4] came to 76.4 µM.

Regarding `Cc1ccc(N2CC(Cn3cc(COC(=O)[C@]4(C)CCC[C@]5(C)c6ccc(C(C)C)cc6CC[C@@H]45)nn3)OC2=O)cc1` (stereo not given in full), the pIC50 was 5.58 in data set [1], 4.57 in data set [2], 4.96 in data set [3] and less than 4.00 in data set [5]. In addition, the half-maximal inhibitory concentration (IC50) at 48 h in data set [4] came out at 71.7 µM.

As for `CC(C)c1ccc2c(c1)CC[C@H]1[C@](C)(C(=O)OCc3cn(CC4CN(c5ccc(N6CCOCC6)cc5)C(=O)O4)nn3)CCC[C@]21C` (stereo not given in full), the pIC50 was 4.66 in data set [1], 4.62 in data set [2], 4.65 in data set [3] and 4.15 in data set [5]. For the same molecule, the IC50 at 48 h in data set [4] worked out at 21.4 µM.

Take `CC(C)c1ccc2c(c1)CC[C@H]1[C@](C)(C(=O)OCc3cn(CC4CN(c5cccc(Br)c5)C(=O)O4)nn3)CCC[C@]21C` (stereo not given in full): the negative logarithm of the IC50 (pIC50) in data set [1] is 4.69; in data set [2], 4.90; in data set [3], 4.66; in data set [5], 4.37. In addition, the concentration for half-maximal inhibition (IC50) at 48 h in data set [4] came out at 47.6 µM.

As to `Cc1ccccc1N1CC(Cn2cc(COC(=O)[C@]3(C)CCC[C@]4(C)c5ccc(C(C)C)cc5CC[C@@H]34)nn2)OC1=O` (stereo not given in full), the negative-log IC50 (pIC50) in data set [1] was 5.19; in data set [2], 4.81; in data set [3], 4.90; in data set [5], 4.77. Moreover, in data set [4], the IC50 at 48 h turned out to be 67.3 µM.

Consider `Cc1cccc(N2CC(Cn3cc(COC(=O)[C@]4(C)CCC[C@]5(C)c6ccc(C(C)C)cc6CC[C@@H]45)nn3)OC2=O)c1` (stereo not given in full), for which the pIC50 is 4.23 in data set [1], 4.63 in data set [2], 4.61 in data set [3] and 4.35 in data set [5]. For the same molecule, the half-inhibitory concentration (IC50) at 48 h in data set [4] worked out at 51.5 µM.

With `CC(C)c1ccc2c(c1)CC[C@H]1[C@](C)(C(=O)OCc3cn(CC4CN(c5ccccc5F)C(=O)O4)nn3)CCC[C@]21C` (stereo not given in full), the negative-log IC50 (pIC50) was 4.78 in data set [1], 4.70 in data set [2], 4.69 in data set [3] and less than 4.00 in data set [5]. Further, the half-maximal inhibitory concentration (IC50) at 48 h in data set [4] was found to be 48.2 µM.

Take `CC(C)c1ccc2c(c1)CC[C@H]1[C@](C)(C(=O)OCc3cn(CC4CN(c5ccc(N6CCOCC6)c(F)c5)C(=O)O4)nn3)CCC[C@]21C` (stereo not given in full): the pIC50 in data set [1] is 4.44; in data set [2] it was 4.54; in data set [3], 4.58; in data set [5] it was 4.20. Besides, in data set [4], the IC50 at 48 h was more than 100 µM.

With `COc1ccc(N2CC(Cn3cc(COC(=O)[C@]4(C)CCC[C@]5(C)c6ccc(C(C)C)cc6CC[C@@H]45)nn3)OC2=O)cc1` (stereo not given in full), the negative logarithm of the IC50 (pIC50) in data set [1] is 5.11; in data set [2] it was 4.51; in data set [3], 5.15; in data set [5], 4.73. Besides, in data set [4], the IC50 at 48 h amounted to 31.1 µM.

Consider `CC(C)c1ccc2c(c1)CC[C@H]1[C@](C)(C(=O)OCc3cn(CC4CN(c5cccc([N+](=O)[O-])c5)C(=O)O4)nn3)CCC[C@]21C` (stereo not given in full), for which the pIC50 in data set [1] was 4.51; in data set [2], 4.89; in data set [3], 4.67; in data set [5], less than 4.00. Besides, the IC50 at 48 h in data set [4] is 25.9 µM.

Turning to `CC(C)c1ccc2c(c1)CC[C@H]1[C@](C)(C(=O)OCc3cn(CC4CN(c5cccc(F)c5)C(=O)O4)nn3)CCC[C@]21C` (stereo not given in full), the pIC50 is 4.48 in data set [1], 4.61 in data set [2], 4.59 in data set [3] and 4.21 in data set [5]. Moreover, the IC50 at 48 h in data set [4] turned out to be 29.1 µM.

For the molecule `CC(C)c1ccc2c(c1)CC[C@H]1[C@](C)(C(=O)OCc3cn(CC4CN(c5ccc(F)cc5)C(=O)O4)nn3)CCC[C@]21C` (stereo not given in full), the pIC50 in data set [1] is 4.33; in data set [2] it was 4.34; in data set [3] it was 4.90; in data set [5], 4.26. The IC50 at 48 h in data set [4] was determined as 41.6 µM.

For `CC(C)c1ccc2c(c1)CC[C@H]1[C@](C)(C(=O)OCc3cn(CC4CN(c5ccccc5Br)C(=O)O4)nn3)CCC[C@]21C` (stereo not given in full), the pIC50 is 4.51 in data set [1], 4.17 in data set [2], 5.19 in data set [3] and 5.02 in data set [5]. The half-inhibitory concentration (IC50) at 48 h in data set [4] was found to be 20.3 µM.

Take `COc1cccc2c1C(=O)c1c(O)c3c(c(O)c1C2=O)C[C@@](O)(C(=O)CO)C[C@@H]3O[C@H]1C[C@H](N)[C@H](O)[C@H](C)O1` [DOXORUBICIN HYDROCHLORIDE]: the pIC50 in data set [1] is 6.11; in data set [2] it was 5.46; in data set [3], 5.62; in data set [5], 5.75. The IC50 at 48 h in data set [4] stood at 23.5 µM.

Consider `CC(C)c1ccc2c(c1)CC[C@H]1[C@](C)(C(=O)O)CCC[C@]21C` [DEHYDROABIETIC ACID], for which the pIC50 in data set [1] was 4.52; in data set [2] it was 4.09; in data set [3] it was less than 4.00; in data set [5], less than 4.00. In addition, the concentration for half-maximal inhibition (IC50) at 48 h in data set [4] was more than 100 µM.

For the molecule `CC(C)c1ccc2c(c1)CC[C@H]1[C@](C)(C(=O)OCc3cn(CC4CN(c5ccc(F)c(F)c5)C(=O)O4)nn3)CCC[C@]21C` (stereo not given in full), the negative-log IC50 (pIC50) was 5.03 in data set [1], 4.50 in data set [2], 4.76 in data set [3] and 4.58 in data set [5]. In addition, the half-inhibitory concentration (IC50) at 48 h in data set [4] was 23.4 µM.

Source of the values: ChEMBL document CHEMBL5376026, “Design, synthesis, and antiproliferative evaluation of novel dehydroabietic acid-1,2,3-triazole-oxazolidinone hybrids” (RSC Med Chem, 2024).
